Assay results reported in patent US20250163043A1 (TRANSTHERA SCIENCES (NANJING), INC., priority 2021, published 2025).
pIC50: −log10 of the molar value. Where two headings read alike, the source gives them in different places.

Columns and labels:
Type in all cases: biochemical
CDK2/CycA2 = CDK2/CycA2 (Homo sapiens, UniProt P24941); assay: ADP-Glo kinase assay on CDK enzymatic activity, CDK2/CycA2; conditions: 10 concentrations from 10 μM, 4-fold, 60 min room temperature
Text: (§1) Test samples: the compounds of the present invention, having structures shown above.
(§2) ADP-Glo Kinase Assay (ADP-Glo kinase kit), DMSO (dimethyl sulfoxide), CDK9/CycT1 (cyclin-dependent kinase 9/cyclin T1), CDK tide (cyclin-dependent kinase substrate peptide fragments), CDK1/CycE1 (cyclin-dependent kinase 1/cyclin E1), CDK2/CycA2 (cyclin-dependent kinase 2/cyclin A2), CDK3/CycE1 (cyclin-dependent kinase 3/cyclin E1), CDK4/CycD3 (cyclin-dependent kinase 4/cyclin D3), CDK5/p25NCK (cyclin-dependent kinase 5/p25), and AZD 4573.
(§3) A 384-well white plate, a 96-well plate, a microplate oscillator, a centrifuge, and a microplate reader.
(§4) The compounds were dissolved in DMSO and diluted 4-fold in the 96-well plate to obtain stock solutions with 10 concentration gradients, and added into a 384-well plate system to obtain a series of 10 concentration gradients of compound solutions with final concentrations of 10 μM starting and 4-fold gradient decreasing. 1 μM AZD4573 was used as compound positive control (PC) and 0.5% DMSO as solvent vehicle control (VC), ten duplicated wells each for PC and VC.
(§5) 1 μL of compound solution and 2 μL of 2× kinase solution were transferred to each well, and the plate was centrifuged at 1000 g for 30 s and left at room temperature for 10 min. A mixture of 2× substrate and ATP was prepared in 1× kinase buffer. The reaction was started after adding 2 μL of substrate and ATP into the plate. The plate was centrifuged at 1000 g for 30 s. The assay plate was closed and left at room temperature for 60 min. The reaction system was added with 4 μL of ADP Glo reagent, centrifuged at 1000 rpm for 1 min, and incubated at room temperature for 40 min. The reaction system was added with 8 μL of kinase assay reagent, centrifuged at 1000 rpm for 1 min and incubated at room temperature for 40 min. The […] was read on Biotek.
(§6) The inhibition rate was calculated according to the following formula: […]
(§7) Lumcmpd: compound fluorescence reading; Lumpositive: average value of the fluorescence reading of positive compound control; Lumvehicle: average value of the fluorescence reading of solvent vehicle control.
(§8) IC50 values were fitted using GraphPad 7.0 based on inhibition rates of compounds at different concentrations.

CDK1/CycE1 = CDK1/CycE1 (Homo sapiens, UniProt P06493); assay: ADP-Glo kinase assay on CDK enzymatic activity, CDK1/CycE1; conditions: for IC50: ADP-Glo, 10 concentrations from 10 μM, 4-fold, 60 min room temperature, read-out: CDK1/CycE1/nM (IC50)
CDK1/CycE1, sequence (P06493 whole entry, species assumed): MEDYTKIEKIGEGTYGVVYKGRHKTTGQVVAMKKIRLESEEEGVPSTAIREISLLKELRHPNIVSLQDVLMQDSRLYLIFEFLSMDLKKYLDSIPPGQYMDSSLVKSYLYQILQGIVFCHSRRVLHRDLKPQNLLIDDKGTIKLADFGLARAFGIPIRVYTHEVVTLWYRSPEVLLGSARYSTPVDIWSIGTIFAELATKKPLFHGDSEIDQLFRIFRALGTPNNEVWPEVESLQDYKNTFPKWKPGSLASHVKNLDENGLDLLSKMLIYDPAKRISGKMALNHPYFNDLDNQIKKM
CDK1/CycE1, sequence (P24864 whole entry partner, species assumed): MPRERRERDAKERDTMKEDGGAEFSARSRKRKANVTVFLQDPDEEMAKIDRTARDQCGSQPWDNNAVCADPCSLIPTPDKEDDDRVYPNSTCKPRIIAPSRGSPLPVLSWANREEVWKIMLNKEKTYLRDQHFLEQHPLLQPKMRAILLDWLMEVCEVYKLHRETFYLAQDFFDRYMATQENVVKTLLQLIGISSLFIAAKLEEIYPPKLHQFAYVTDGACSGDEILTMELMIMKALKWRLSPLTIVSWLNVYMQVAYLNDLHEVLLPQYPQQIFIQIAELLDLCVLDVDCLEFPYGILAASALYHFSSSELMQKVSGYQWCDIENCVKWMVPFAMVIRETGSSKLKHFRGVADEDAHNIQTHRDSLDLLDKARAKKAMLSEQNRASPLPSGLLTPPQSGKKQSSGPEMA
Experimental: as §1, §3, §4, §5, §6, §7, §8

CDK9/CycT1 = CDK9/CycT1 (Homo sapiens, UniProt P50750); assay: ADP-Glo kinase assay on CDK enzymatic activity, CDK9/CycT1; conditions: 10 concentrations from 10 μM, 4-fold, 60 min room temperature
CDK9/CycT1, sequence (P50750 whole entry): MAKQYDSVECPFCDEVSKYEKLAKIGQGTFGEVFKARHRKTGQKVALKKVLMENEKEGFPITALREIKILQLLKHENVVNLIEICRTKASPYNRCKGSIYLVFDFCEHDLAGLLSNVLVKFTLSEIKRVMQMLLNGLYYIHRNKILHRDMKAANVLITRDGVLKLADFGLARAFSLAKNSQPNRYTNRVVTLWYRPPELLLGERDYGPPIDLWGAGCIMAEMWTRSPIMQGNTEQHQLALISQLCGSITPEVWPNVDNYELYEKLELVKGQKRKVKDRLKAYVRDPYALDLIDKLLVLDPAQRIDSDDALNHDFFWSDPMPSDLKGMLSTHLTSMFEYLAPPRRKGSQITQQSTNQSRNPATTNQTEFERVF
CDK9/CycT1, sequence (O60563 whole entry partner): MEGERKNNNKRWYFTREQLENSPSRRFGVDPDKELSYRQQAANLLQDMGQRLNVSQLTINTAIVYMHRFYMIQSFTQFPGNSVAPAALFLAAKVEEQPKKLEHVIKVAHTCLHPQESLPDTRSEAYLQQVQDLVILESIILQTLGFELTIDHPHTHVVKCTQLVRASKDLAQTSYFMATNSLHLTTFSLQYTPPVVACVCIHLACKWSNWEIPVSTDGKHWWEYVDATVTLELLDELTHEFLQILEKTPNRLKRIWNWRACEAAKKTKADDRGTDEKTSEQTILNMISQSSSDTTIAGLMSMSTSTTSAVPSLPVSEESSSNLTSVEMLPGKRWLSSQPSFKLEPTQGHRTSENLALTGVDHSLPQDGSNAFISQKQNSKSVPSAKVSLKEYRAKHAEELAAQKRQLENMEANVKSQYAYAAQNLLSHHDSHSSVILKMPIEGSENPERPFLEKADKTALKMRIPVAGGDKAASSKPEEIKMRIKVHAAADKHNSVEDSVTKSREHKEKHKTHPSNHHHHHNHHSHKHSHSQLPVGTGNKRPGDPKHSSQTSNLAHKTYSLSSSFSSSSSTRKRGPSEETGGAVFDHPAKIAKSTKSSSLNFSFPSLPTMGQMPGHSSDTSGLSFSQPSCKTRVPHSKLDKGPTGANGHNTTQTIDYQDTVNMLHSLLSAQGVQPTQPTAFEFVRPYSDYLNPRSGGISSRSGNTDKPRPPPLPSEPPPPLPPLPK
Text: as §1, §2, §3, §4, §5, §6, §7, §8

IC50 (CDK2/CycA2) [nM]	IC50 (CDK1/CycE1) [nM]	IC50 (CDK9/CycT1) [nM]	SMILES	pIC50 (CDK1/CycE1)
815	638	4	CCN(CC)c1nc(C#N)cc2cnc(N[C@H]3CCCNC3)cc12 [Compound 171, (S)-1-(diethylamino)-7-(piperidin-3-ylamino)-2,6-naphthyridine-3-carbonitrile]	
19	55	2	CC(=O)N[C@H]1C[C@@H](Nc2cc3c(NC(C)C)nc(C#N)cc3cn2)C1 [Compound 167, N-((1s,3s)-3-((7-cyano-5-(isopropylamino)-2,6-naphthyridin-3-yl)amino)cyclobutyl)acetamide]	
125	63	1	N#Cc1cc2cnc(N[C@H]3CCCNC3)cc2c(NC2CCCC2)n1 [Compound 168, (S)-1-(cyclopentylamino)-7-(piperidin-3-ylamino)-2,6-naphthyridine-3-carbonitrile]	
10	29	2	CC(C)Nc1nc(C#N)cc2cnc(N[C@H]3C[C@@H](O)C3)nc12 [Compound 133, 2-(((1s,3s)-3-hydroxycyclobutyl)amino)-8-(isopropylamino)pyrido[3,4-d]pyrimidine-6-carbonitrile]	
28	50	1	CC(C)Nc1nc(C#N)cc2cnc(N[C@H]3C[C@H](N)C3)cc12 [Compound 183, 7-(((1r,3r)-3-aminocyclobutyl)amino)-1-(isopropylamino)-2,6-naphthyridine-3-carbonitrile]	
93	34	1	CC(C)Nc1nc(C#N)cc2cnc(N[C@H]3C[C@](C)(N)C3)nc12 [Compound C26, 2-(((1r,3r)-3-amino-3-methylcyclobutyl)amino)-8-(isopropylamino)pyrido[3,4-d]pyrimidine-6-carbonitrile]	
5	11	1	CC(C)Nc1nc(C#N)cc2cnc(N[C@H]3C[C@H](O)C3)nc12 [Compound 134, 2-(((1r,3r)-3-hydroxycyclobutyl)amino)-8-(isopropylamino)pyrido[3,4-d]pyrimidine-6-carbonitrile]	
8	8	1	CC(C)(C)Nc1nc(C#N)cc2cnc(N[C@H]3C[C@H](O)C3)nc12 [Compound C9, 8-(tert-butylamino)-2-(((1r,3r)-3-hydroxycyclobutyl)amino)pyrido[3,4-d]pyrimidine-6-carbonitrile]	
34	186	1	CCNc1nc(C#N)cc2cnc(N[C@H]3C[C@H](N)C3)nc12 [Compound C28, 2-(((1r,3r)-3-aminocyclobutyl)amino)-8-(ethylamino)pyrido[3,4-d]pyrimidine-6-carbonitrile]	
83	99	2	N#Cc1cc2cnc(N[C@H]3C[C@H](N)C3)nc2c(NC2CCOCC2)n1 [Compound C30, 2-(((1r,3r)-3-aminocyclobutyl)amino)-8-((tetrahydro-2H-pyran-4-yl)amino)pyrido[3,4-d]pyrimidine-6-carbonitrile]	
958	413	8	N#Cc1cc2cnc(N[C@H]3CCCNC3)cc2c(C2CCCC2)n1 [Compound 187, (S)-1-cyclopentyl-7-(piperidin-3-ylamino)-2,6-naphthyridine-3-carbonitrile]	
135	138	1	CC(C)Nc1nc(C#N)cc2cnc(N[C@H]3C[C@@H](N)C3)cc12 [Compound 164, 7-(((1s,3s)-3-aminocyclobutyl)amino)-1-(isopropylamino)-2,6-naphthyridine-3-carbonitrile]	

SMILES	IC50 (CDK2/CycA2) [nM]	IC50 (CDK1/CycE1) [nM]	IC50 (CDK9/CycT1) [nM]	pIC50 (CDK1/CycE1)
CCOc1nc(C#N)cc2cnc(N[C@H]3C[C@H](N)C3)cc12 [Compound 191, 7-(((1r,3r)-3-aminocyclobutyl)amino)-1-ethoxy-2,6-naphthyridine-3-carbonitrile]	1110		5	5.71
